US10869483B2, “Coniothyrium minitans for use against moss growth” (Bayer CropScience Aktiengesellschaft, priority 2015, dated 2020)

Test system: haircup moss growth
Assay: Drench test (greenhouse, moss growth on soil surface)
Format: in vivo
Details: 6.25 kg/ha = 20 μL/mL, 20 mL drench onto soil, 19 weeks, 15° C., 0% = untreated control, 100% = no moss growth
Procedure: The test was carried out under greenhouse conditions.
120 mL of a mixture of steamed field soil and sand (1:1) was filled into transparent cylindrical vessels 5.5 cm in size.
The test formulation, the product CONTANS®, comprising 1×10^9 spores of the strain Coniothyrium minitans CON/M/91-08, was dissolved in water and diluted with water to the desired concentrations. 20 mL of the made-up solutions were pipetted onto the soil in the vessels.
The vessels were covered with a transparent lid.
The vessels remained in the greenhouse for the next 19 weeks, at 15° C. and at natural light conditions. The lids were opened slightly after approximately 2 weeks, and the soil was watered every 3 weeks and kept moist.
The evaluation was effected by estimating, per vessel, the soil surface area which had in the meantime been covered by growth, predominantly haircup moss growth. 0% means an efficacy which corresponds to that of the untreated control, while an efficacy of 100% means that no moss growth was discernible.

Q: For `CCCCCCCCCC[N+](C)(C)CCCCCCCCCC.[Cl-]` [DDAC-C10, Didecyldimethylammonium chloride with alkyl chain length C10], which Efficacy % is on record?
A: 100%
